Data taken from patent US9415034B2, “Inhibitors and enhancers of uridine diphosphate-glucuronosyltransferase 2B (UGT2B)” (NATIONAL DEFENSE MEDICAL CENTER, priority 2005, dated 2016).

System: UGT2B
Experiment: in vitro
Details: for inhibition at 60 min, 8.5 μM / inhibition at 60 min, 85 μM / inhibition at 60 min, 850 μM / inhibition at 60 min, 8.5 µM / inhibition at 60 min, 85 µM / inhibition at 60 min, 850 µM / inhibition at 60 min: male, Sprague-Dawley, rat; for inhibition at 60 min, 8.5 μM / inhibition at 60 min, 85 μM / inhibition at 60 min, 850 μM / inhibition at 60 min, 8.5 µM / inhibition at 60 min, 85 µM / inhibition at 60 min, 850 µM: % Inhibition (Mean ± SD)
Protocol: In the following experiment, 27 different kinds of CHEs and 10 different excipients were used as UGT2B inhibitor in this invention. These CHEs are pure compounds available commercially, and were purchased from Sigma Chemical Co., Nacalai Tesque (Kyoto, Japan) and Indofine Chemical Co., Inc. (Somerville, N.J.). These UGT2B inhibitors are dissolved in alcohol at the concentration of 1, 10, 100 μM for the following experiment.
These excipients are dissolved in water and make up to 0.5%, 5%, 50% (wt %, w/v) for the following experiment. (Note: BRIJ is a registered trademark of ICI Americas, Inc.; Pluronic is a registered trademark of BASF Corporation.)
The Sprague-Dawley male rats, weighted 300-400 g are used as model animals in these experiments. The microsome is prepared as follows: • i. Sacrifice a rat after 12-16 hours fasting, take its liver; wipe dry the liver and weigh it. • ii. Add 300% (by volume) of cold 0.3M sucrose solution, and homogenize the liver. • iii. Centrifuge the homogenized liver suspension at 9000×g speed (KS-800, Kubota, made in Japan) for 10 min at 4° C. Collect the supernatant. • iv. Centrifuge the supernatant at 105,000×g speed (L8-60M, Beckman, made in USA) for 60 min at 4° C. • v. Remove the supernatant, add 0.3M sucrose (of the same volume) and repeat the homogenization. The homogenized liver suspension is the microsome. Store the microsome at −70° C.
Thaw the microsome before use. Add 5 μl/ml BRIJ®35 (Fisher et al. 2000, Drug Metabolism & Disposition. 28(5):560-6) into microsome by a ratio of microsome:BRIJ®35=8:1 (v/v).
The protein amount is determined as follows: • i. Take 0.1 ml microsome and dilute to 5 ml 0.85% NaCl (50-fold dilution, v/v). Take 0.2 ml of the diluted microsome and place it in a capped test tube (triple experiments). Separately, replacing microsome with 0.2 ml NaCl as the control. • ii. Add 2.2 ml Biuret regent (SIGMA, 690-A) into each test tube, mix well and store at room temperature for 10 min. • iii. Add 0.1 ml folin regent (SIGMA, 690-A), mix immediately, and store at room temperature for 30 min. Measure the absorbance at 550 nm wave length within the 30 min. Measure the concentration of protein in microsome based on the standard curve generated by various bovine albumin concentration and absorbance. 4. The Measurement of the Inhibition of UGT2B Activity in vitro • i. […] Mix solution (A) and 17 μl solution (B) thoroughly, place in a 37° C. water bath and shake at 125 rpm for 60 min. • iii. Add 1 ml ACN to interrupt the reaction. • iv. Centrifuge at 130,000×g speed at 4° C. for 5 min, and • v. […] 5.
Set the Ultra-violet detector's (SPD-10A, Shimadzu, Kyoto, made in Japan) wave length to 210 nm.
Those CHEs are commercially available pure compounds, acquired from Sigma Chemical Co., Nacalai Tesque (Kyoto, Japan) and […] (Somerville, N.J.). Their categories, names, sources, and chemical compositions are described in Table 5.

[1] = Table 6, enhancer 8.5 μM, negative = enhancement
[2] = Table 6, enhancer 85 μM, negative = enhancement
[3] = Table 6, enhancer 850 μM, negative = enhancement
[4] = inhibition rate on the metabolism of nalbuphine in microsome

Structure (SMILES)	inhibition at 60 min, 8.5 μM [%]	inhibition at 60 min, 85 μM [%]	inhibition at 60 min, 850 μM [%]	inhibition at 60 min, 8.5 µM [%]	inhibition at 60 min, 85 µM [%]	inhibition at 60 min, 850 µM [%]	other results
CCCCCCCCCCCCO [lauryl alcohol, Lauryl Alcohol]	–	–	–	14.4 ± 3.37	19.5 ± 3.46	6.23 ± 6.75	–
O=C1C[C@@H](c2ccc(O[C@@H]3O[C@H](CO)[C@@H](O)[C@H](O)[C@H]3O)cc2)Oc2cc(O)ccc21 [liquiritin, Liquiritin]	-9.38 ± 1.8	-17.7 ± 8.51	-29.2 ± 2.74	–	–	–	–
O=c1cc(-c2ccc(O)c(O)c2)oc2cc(O[C@@H]3O[C@H](CO)[C@@H](O)[C@H](O)[C@H]3O)cc(O)c12 [luteolin-7-glucoside, Luteolin-7-Glucoside]	–	–	–	–	–	–	% Inhibition (Mean ± SD) [1]: −45.053 ± 3.583%; % Inhibition (Mean ± SD) [2]: −36.109 ± 9.203%; % Inhibition (Mean ± SD) [3]: −47.869 ± 26.599%
C[C@@H]1O[C@@H](O[C@H]2[C@H](Oc3cc(O)c4c(c3)O[C@H](c3ccc(O)cc3)CC4=O)O[C@H](CO)[C@@H](O)[C@@H]2O)[C@H](O)[C@H](O)[C@H]1O [narigin, Narigin]	–	–	–	–	–	–	% Inhibition (Mean ± SD) [1]: −124.10 ± 16.541%; % Inhibition (Mean ± SD) [2]: −80.70 ± 4.927%; % Inhibition (Mean ± SD) [3]: −98.15 ± 5.276%
COc1ccc([C@@H]2CC(=O)c3c(O)cc(O[C@@H]4O[C@H](CO)[C@@H](O)[C@H](O)[C@H]4O[C@@H]4O[C@@H](C)[C@H](O)[C@@H](O)[C@H]4O)cc3O2)cc1O [neohesperidin, Neohesperidin]	–	–	–	–	–	–	% Inhibition (Mean ± SD) [1]: −66.586 ± 9.614%; % Inhibition (Mean ± SD) [2]: −113.63 ± 8.986%; % Inhibition (Mean ± SD) [3]: −113.46 ± 16.721%
CC1(C)CC[C@]2(C(=O)O)CC[C@]3(C)C(=CC[C@@H]4[C@@]5(C)CC[C@H](O)C(C)(C)[C@@H]5CC[C@]43C)[C@@H]2C1 [oleanolic acid, Oleanolic Acid]	–	–	–	–	–	–	inhibition at 60 min, 8.5 μM (liver microsomes, probe nalbuphine, Table 6, enhancer 8.5 μM, negative = enhancement): -87.2 ± 24.4%; inhibition at 60 min, 85 μM (liver microsomes, probe nalbuphine, Table 6, enhancer 85 μM, negative = enhancement): -136 ± 15.2%; inhibition at 60 min, 850 μM (liver microsomes, probe nalbuphine, Table 6, enhancer 850 μM, negative = enhancement): -129 ± 22.1%
COc1ccc([C@@H]2CC(=O)c3c(O)cc(O[C@@H]4O[C@H](CO)[C@@H](O)[C@H](O)[C@H]4O[C@@H]4O[C@@H](C)[C@H](O)[C@@H](O)[C@H]4O)cc3O2)cc1 [poncirin, Poncirin]	–	–	–	–	–	–	% Inhibition (Mean ± SD) [1]: −16.068 ± 8.122%; % Inhibition (Mean ± SD) [2]: −8.448 ± 8.261%; % Inhibition (Mean ± SD) [3]: −7.098 ± 18.196%
O=C(O)c1ccc(O)c(O)c1 [protocatechuic acid, Protocatechuic acid]	-20.2 ± 5.96	-4.56 ± 3.37	9.84 ± 1.87	-20.2 ± 5.96	-4.56 ± 3.37	9.84 ± 1.87	–
C[C@@H]1O[C@@H](Oc2c(-c3ccc(O)c(O)c3)oc3cc(O)cc(O)c3c2=O)[C@H](O)[C@H](O)[C@H]1O [quercitrin, Quercitrin]	–	–	–	–	–	–	% Inhibition (Mean ± SD) [1]: −81.27 ± 15.027%; % Inhibition (Mean ± SD) [2]: −83.60 ± 27.446%; % Inhibition (Mean ± SD) [3]: −55.57 ± 12.151%
C[C@@H]1O[C@@H](OC[C@H]2O[C@@H](Oc3c(-c4ccc(O)c(O)c4)oc4cc(O)cc(O)c4c3=O)[C@H](O)[C@@H](O)[C@@H]2O)[C@H](O)[C@H](O)[C@H]1O [rutin, Rutin]	–	–	–	–	–	–	% Inhibition (Mean ± SD) [1]: −19.854 ± 19.742%; % Inhibition (Mean ± SD) [2]: −29.414 ± 29.485%; % Inhibition (Mean ± SD) [3]: −33.458 ± 13.373%
C=C[C@H]1[C@H](O[C@@H]2O[C@H](CO)[C@@H](O)[C@H](O)[C@H]2O)OC=C2C(=O)OCC[C@]21O [swertiamarin, Swertiamarin]	–	–	–	–	–	–	% Inhibition (Mean ± SD) (Table 2, inhibitor 8.5 μM, metabolism of nalbuphine in rat liver microsome): 28.239 ± 2.248%; % Inhibition (Mean ± SD) (Table 2, inhibitor 85 μM, metabolism of nalbuphine in rat liver microsome): 27.930 ± 4.129%; % Inhibition (Mean ± SD) (Table 2, inhibitor 850 μM, metabolism of nalbuphine in rat liver microsome): −2.499 ± 6.899%
O=C/C=C/c1ccccc1 [trans-cinnamaldehyde, Trans- Cinnamaldehyde]	-6.97 ± 3.78	-3.1 ± 9.46	18.3 ± 10.3	-6.97 ± 3.78	-3.1 ± 9.46	18.3 ± 10.3	–
O=C(O)/C=C/c1ccccc1 [trans-cinnamic acid, Trans-Cinnamic Acid]	-153 ± 24.9	-109 ± 18.6	-135 ± 3.9	–	–	–	–
O=c1cc(-c2ccccc2)oc2c1ccc1ccccc12 [α-naphthoflavone, α- Naphthoflavone]	–	–	–	72.3 ± 2.81	97.8 ± 4.37	90.8 ± 7.17	inhibition at 60 min [4]: ≥ 30%
C=CC(=C)CCC=C(C)C [β-myrcene, β-Myrcene]	–	–	–	16.8 ± 1.72	35.29 ± 0.22	34.9 ± 7.3	inhibition at 60 min [4]: ≥ 30%

Second part, led by results:

inhibition at 60 min, 8.5 μM [%]	inhibition at 60 min, 85 μM [%]	inhibition at 60 min, 850 μM [%]	inhibition at 60 min, 8.5 µM [%]	inhibition at 60 min, 85 µM [%]	inhibition at 60 min, 850 µM [%]	Structure (SMILES)	other results
-19.5 ± 14.2	-76 ± 27.3	-71.1 ± 4.51	–	–	–	O=c1c(O)c(-c2ccc(O)cc2)oc2cc(O)cc(O)c12 [kaempferol, Kaempferol]	–
-25.5 ± 26.6	-28.3 ± 15.2	-17.6 ± 12.1	–	–	–	O=c1cc(-c2ccc(O)c(O)c2)oc2cc(O)cc(O)c12 [luteolin, Luteolin]	–
-142 ± 41	-165 ± 23	-188 ± 16.6	–	–	–	C[C@H](Cc1ccc(O)c(O)c1)[C@@H](C)Cc1ccc(O)c(O)c1 [nordihydroguaiaretic acid]	inhibition at 60 min (rate of inhibition (enhancement of the metabolism of nalbuphine in liver microsome)): -188%
–	–	–	3.92 ± 5.61	18.3 ± 7.68	10.1 ± 5.84	O=c1c(-c2ccc(O)cc2)coc2c([C@@H]3O[C@H](CO)[C@@H](O)[C@H](O)[C@H]3O)c(O)ccc12 [puerarin, Puerarin]	–
-81.4 ± 5.59	-143 ± 18.5	-119 ± 19.4	–	–	–	O=c1c(O)c(-c2ccc(O)c(O)c2)oc2cc(O)cc(O)c12 [quercetin, Quercetin]	–
-14.7 ± 5.81	4.6 ± 8.24	-20.6 ± 18.2	-14.7 ± 5.81	4.6 ± 8.24	-20.6 ± 18.2	O=c1ccc2ccc(O)cc2o1 [umbelliferone, Umbelliferone]	–
-129 ± 8.29	-153 ± 6.49	-136 ± 2.88	–	–	–	COc1c(O)cc(O)c2c(=O)cc(-c3ccccc3)oc12 [wogonin, Wogonin]	–
–	–	–	95.8 ± 5.46	86 ± 16.5	99.7 ± 15.9	O=c1cc(-c2ccccc2)oc2ccc3ccccc3c12 [β-naphthoflavone, β- Naphthoflavone]	inhibition at 60 min [4]: ≥ 30%
